For one assay, the target named is T1, human arginase I (ARG I) (Homo sapiens, UniProt P05089).
T1 sequence (P05089 1-322): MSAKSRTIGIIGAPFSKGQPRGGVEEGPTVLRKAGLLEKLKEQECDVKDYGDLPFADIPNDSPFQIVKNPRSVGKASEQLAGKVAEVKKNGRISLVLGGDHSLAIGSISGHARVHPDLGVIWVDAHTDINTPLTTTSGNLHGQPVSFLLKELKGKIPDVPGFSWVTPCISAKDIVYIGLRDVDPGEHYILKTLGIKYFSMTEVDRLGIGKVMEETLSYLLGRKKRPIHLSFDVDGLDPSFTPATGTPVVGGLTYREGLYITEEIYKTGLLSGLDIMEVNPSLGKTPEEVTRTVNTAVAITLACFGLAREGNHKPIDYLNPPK
Kind of assay: Inhibition of arginase I, spectrophotometric urea assay at 530 nm. Type of assay: biochemical. Conditions: read-out: Potency (ARG I). As for the experimental part:
(§1) The assay established the concentration of inhibitor that is required to reduce arginase activity by 50% (IC50).
(§2) Inhibition of arginase I (ARG I) and arginase II (ARG II) by Formula I and Formula II compounds is followed spectrophotometrically at 530 nm. The compound to be tested is dissolved in DMSO at an initial concentration 50-fold greater than its final concentration in the cuvette. 10 μl of the stock solution is diluted in 90 μl of the assay buffer that comprises 0.1M sodium phosphate buffer containing 130 mM NaCl, pH 7.4, to which is added ovalbumin (OVA) at a concentration of 1 mg/ml. Solutions of arginase I and II are prepared in 100 mM sodium phosphate buffer, pH 7.4 containing 1 mg/ml of OVA to give an arginase stock solution at a final concentration of 100 ng/ml.
(§3) To each well of a 96-well microtiter plate is add 40 μl of enzyme, 10 μl of an inventive compound and 10 μl of enzyme substrate (L-arginine+manganese sulfate). For wells that are used as positive controls, only the enzyme and its substrate are added, while wells used as negative controls contain only manganese sulfate.
(§4) After incubating the microtiter plate at 37° C. for 60 minutes, 150 μl of a urea reagent obtained by combining equal proportions (1:1) of reagents A and B is added to each well of the microtiter plate to stop the reaction. The urea reagent is made just before use by combining Reagent A (10 mM o-phthaldialdehyde, and 0.4% polyoxyethylene (23) lauryl ether (w/v) in 1.8 M sulfuric acid) with Reagent B (1.3 mM primaquine diphosphate, 0.4% polyoxyethylene (23) lauryl ether (w/v), 130 mM boric acid in 3.6 M sulfuric acid). After quenching the reaction mixture, the microtiter plate is allowed to stand for an additional 10 minutes at room temperature to allow color development. The inhibition of arginase is computed by measuring the optical density (OD) of the reaction mixture at 530 nm and normalizing the OD value to percent inhibition observed in the control. The normalized OD is then used to generate a dose-response curve by plotting the normalized OD values against log [concentration] and using regression analysis to compute the IC50 values.

A further assay has as its target T2, arginase II (ARG II) (Homo sapiens, UniProt P78540).
T2 sequence (P78540 23-354): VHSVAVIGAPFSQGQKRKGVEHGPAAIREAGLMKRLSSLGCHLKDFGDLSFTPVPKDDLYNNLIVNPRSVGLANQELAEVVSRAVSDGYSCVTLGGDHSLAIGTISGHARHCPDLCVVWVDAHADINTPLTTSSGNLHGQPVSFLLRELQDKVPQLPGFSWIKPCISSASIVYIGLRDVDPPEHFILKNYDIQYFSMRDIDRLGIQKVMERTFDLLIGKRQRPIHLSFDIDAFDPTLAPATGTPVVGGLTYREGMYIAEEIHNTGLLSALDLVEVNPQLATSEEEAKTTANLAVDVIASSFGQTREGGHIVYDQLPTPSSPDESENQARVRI
In words: Inhibition of arginase II, spectrophotometric urea assay at 530 nm. Type of assay: biochemical. As for the experimental part: as §1, §2, §3, §4

Where [1] appears, read: Formula II compounds, Table 2-A.
Where [2] appears, read: Formula II compounds, Table 2-A, read-out: Potency (ARG).
The mark [3] stands for this setting: Formula I compounds, Table 2, read-out: Potency (ARG II).

Counter-ions that a name gives are not always drawn. Like-named read-outs stand apart in the source and are kept apart here. Some results are limits rather than exact numbers.

As to `NC(CCCCB(O)O)(C(=O)O)[C@@H]1CCN(Cc2ccc(F)cc2)C1` (mixture of isomers) [37-A, 2-amino-6-borono-2-((R)-1-(4-fluorobenzyl)pyrrolidin-3-yl)hexanoic acid], the values for the IC50 at human arginase I (ARG I) (setting [1]) and on arginase II (ARG II) (setting [2]) were 251 to 1000 nM and 1000 to 2000 nM, respectively.

For the molecule `NC(CCCCB(O)O)(C(=O)O)[C@@H]1CCN(Cc2ccc(C(F)(F)F)cc2)C1` (mixture of isomers) [38-A, 2-amino-6-borono-2-((R)-1-(4-(trifluoromethyl)benzyl)pyrrolidin-3-yl)hexanoic acid dihydrochloride], the IC50 on human arginase I (ARG I) (setting [1]) and at arginase II (ARG II) (setting [2]) was 251 to 1000 nM in each case. Turning to `CCN(CCC(N)(CCCCB(O)O)C(=O)O)Cc1ccccc1` (racemic) [compound 19, (R/S)-2-Amino-2-[2-(benzyl-ethyl-amino)-ethyl]-6-borono-hexanoic acid dihydrochloride], the IC50 on human arginase I (ARG I) (Formula I compounds, Table 2) lay within 2000 to 5000 nM; at arginase II (ARG II) (setting [3]), 1000 to 2000 nM. The corresponding values for `NC(CCCCB(O)O)(CNC(c1ccccc1)C(O)c1ccccc1)C(=O)O` (stereo in doubt) [compound 89, 2-amino-6-borono-2-(((1R,2S)-2-hydroxy-1,2-diphenylethylamino)methyl)hexanoic acid dihydrochloride] are greater than 5000 nM and greater than 5000 nM. In the same order, the values of `N[C@](CCCCB(O)O)(C[C@H]1CCCN1)C(=O)O` (stereo in doubt) [compound 115, (R)-2-amino-6-borono-2-((R)-pyrrolidin-2-ylmethyl)hexanoic acid] are 0.1 to 250 nM and 0.1 to 250 nM. As for `NC(CCCCB(O)O)(C(=O)O)C1CCN(c2ccc(C(F)(F)F)cn2)CC1` (stereo not drawn) [1-A, 2-amino-6-borono-2-(5′Trifluoromethyl-3,4,5,6-tetrahydro-2H-[1,2′]bipyridinyl-4-yl)-hexanoic acid hydrochloride], the IC50 was 251 to 1000 nM at human arginase I (ARG I) (setting [1]) and 1000 to 2000 nM at arginase II (ARG II) (setting [2]). The corresponding values for `NC(CCCCB(O)O)(C(=O)O)C1CCN(c2nccc(C(F)(F)F)n2)CC1` (stereo not drawn) [2-A, 2-amino-6-borono-2-[(4-Trifluoromethyl-pyrimidin-2-yl)-piperidin-4-yl)-hexanoic acid hydrochloride] are 1000 to 2000 nM and 2000 to 5000 nM. The corresponding values for `NC(CCCCB(O)O)(C(=O)O)C1CCN(c2cc(C(F)(F)F)nc3ccccc23)CC1` (stereo not drawn) [3-A, 2-amino-6-borono-2-[(2-Trifluoromethyl-quinolin-4-yl)-piperidin-4-yl)-hexanoic acid hydrochloride] are 1000 to 2000 nM and 1000 to 2000 nM.

Regarding `NC(CCCCB(O)O)(C(=O)O)C1CCN(c2nc3ccc(Cl)cc3o2)CC1` (stereo not drawn) [4-A, 2-amino-6-borono-2-[(6-chlorobenzoxazol-2-yl)-piperidin-4-yl)-hexanoic acid hydrochloride], the figures for the IC50 on human arginase I (ARG I) (setting [1]) and on arginase II (ARG II) (setting [2]) were 251 to 1000 nM and 1000 to 2000 nM, respectively. The corresponding values for `Cc1cc2c(F)ccc(C)c2nc1N1CCC(C(N)(CCCCB(O)O)C(=O)O)CC1` (stereo not drawn) [5-A, 2-amino-6-borono-2-(1-(5-fluoro-3,8-dimethylquinolin-2-yl)piperidin-4-yl)hexanoic acid dihydrochloride] are 1000 to 2000 nM and 251 to 1000 nM. The corresponding values for `NC(CCCCB(O)O)(C(=O)O)C1CCN(c2cc(C(F)(F)F)c3ccccc3n2)CC1` (stereo not drawn) [6-A, 2-amino-6-borono-2-(1-(4-(trifluoromethyl)quinolin-2-yl)piperidin-4-yl)hexanoic acid] are 251 to 1000 nM and 1000 to 2000 nM.

For `Cc1cc(C(F)(F)F)cc(N2CCC(C(N)(CCCCB(O)O)C(=O)O)CC2)n1` (stereo not drawn) [7-A, 2-amino-6-borono-2-(1-(6-methyl-4-(trifluoromethyl)pyridin-2-yl)piperidin-4-yl)hexanoic acid], the IC50 on human arginase I (ARG I) (setting [1]) was 1000 to 2000 nM; on arginase II (ARG II) (setting [2]) it was 2000 to 5000 nM. The corresponding values for `NC(CCCCB(O)O)(C(=O)O)C1CCN(c2ncc(Cl)cc2Cl)CC1` (stereo not drawn) [8-A, 2-amino-6-borono-2-(1-(3,5-dichloropyridin-2-yl)piperidin-4-yl)hexanoic acid] are 2000 to 5000 nM and 2000 to 5000 nM. In the same order, the values of `NC(CCCCB(O)O)(C(=O)O)C1CCN(c2cc(C(F)(F)F)ccn2)CC1` (stereo not drawn) [9-A] are 1000 to 2000 nM and 2000 to 5000 nM. With `NC(CCCCB(O)O)(C(=O)O)C1CCN(c2ncc(C(F)(F)F)cc2Cl)CC1` (stereo not drawn) [10-A, 2-amino-6-borono-2-(1-(3-chloro-5-(trifluoromethyl)pyridin-2-yl)piperidin-4-yl)hexanoic acid dihydrochloride], the IC50 at human arginase I (ARG I) (setting [1]) and on arginase II (ARG II) (setting [2]) was 2000 to 5000 nM in each case. Turning to `NC(CCCCB(O)O)(C(=O)O)C1CCN(c2nc3ccc(Cl)cc3s2)CC1` (stereo not drawn) [11-A, 2-amino-6-borono-2-[(6-chlorobenzothiazol-2-yl)-piperidin-4-yl)-hexanoic acid dihydrochloride], the IC50 at human arginase I (ARG I) (setting [1]) and at arginase II (ARG II) (setting [2]) was 251 to 1000 nM throughout. For the molecule `NC(CCCCB(O)O)(CCN1CCOCC1)C(=O)O` (stereo not drawn) [compound 24, 2-amino-6-borono-2-(2-morpholinoethyl)hexanoic acid], the IC50 on arginase II (ARG II) (setting [3]) lay in the range of 2000 to 5000 nM. The same measure, in the same setting: in the case of `NC(CCCCB(O)O)(CCN1CCNCC1)C(=O)O` (stereo not drawn) [compound 32, 2-amino-6-borono-2-(2-(piperazin-1-yl)ethyl)hexanoic acid trihydrochloride] it was 2000 to 5000 nM. For the molecule `CN1CCN(CCC(N)(CCCCB(O)O)C(=O)O)CC1` (stereo not drawn) [compound 35, 2-amino-6-borono-2-(2-(4-methylpiperazin-1-yl)ethyl)hexanoic acid trihydrochloride], the IC50 at arginase II (ARG II) (setting [3]) fell in the range of 2000 to 5000 nM. On the same count and under the same terms, with `NC(CCCCB(O)O)(CN1CCOCC1)C(=O)O` (stereo not drawn) [compound 81, 2-amino-6-borono-2-(morpholinomethyl)hexanoic acid dihydrochloride] the figure was greater than 5000 nM; with `NC(CO)(CCCCB(O)O)C(=O)O` (stereo not drawn) [compound 82, 2-amino-6-borono-2-(hydroxymethyl)hexanoic acid hydrochloride], 2000 to 5000 nM; with `NC(CCCCB(O)O)(Cc1cccc(F)c1)C(=O)O` (stereo not drawn) [compound 98, 2-amino-6-borono-2-(3-fluorobenzyl)hexanoic acid hydrochloride], greater than 5000 nM. Same read-out and setting: in the case of `NC(CCCCB(O)O)(Cc1ccccc1)C(=O)O` (stereo not drawn) [compound 99, 2-amino-2-benzyl-6-boronohexanoic acid hydrochloride] it was greater than 5000 nM; in that of `COCCCC(N)(CCCCB(O)O)C(=O)O` (stereo not drawn) [compound 100, 2-amino-6-borono-2-(3-methoxypropyl)hexanoic acid hydrochloride], greater than 5000 nM. Regarding `NC(CCCO)(CCCCB(O)O)C(=O)O` (stereo not drawn) [compound 101, 2-amino-6-borono-2-(3-hydroxypropyl)hexanoic acid hydrochloride], on human arginase I (ARG I) (Formula I compounds, Table 2), the IC50 is 2000 to 5000 nM. Take `O=C(O)C1(CCCCB(O)O)CCCN1` (stereo not drawn) [compound 103, 2-(4-boronobutyl)pyrrolidine-2-carboxylic acid hydrochloride]: the IC50 on arginase II (ARG II) (setting [3]) was greater than 5000 nM. As for `CC(C)CC(N)(CCCCB(O)O)C(=O)O` (stereo not drawn) [compound 104, 2-amino-6-borono-2-isobutylhexanoic acid hydrochloride], at arginase II (ARG II) (setting [3]), the IC50 was greater than 5000 nM. The same measure, in the same setting: with `CC(C)C(N)(CCCCB(O)O)C(=O)O` (stereo not drawn) [compound 105, 2-amino-6-borono-2-isopropylhexanoic acid hydrochloride] the figure was greater than 5000 nM. On to `NC(CCCCB(O)O)(CCC1Cc2ccccc2CN1)C(=O)O` (stereo not drawn) [compound 131, 2-amino-6-borono-2-(2-(1,2,3,4-tetrahydroisoquinolin-3-yl)ethyl)hexanoic acid dihydrochloride], for which the IC50 at human arginase I (ARG I) (Formula I compounds, Table 2) lay in the range of 251 to 1000 nM.

The values are drawn from patent US9994594B2, “Inhibitors of arginase and their therapeutic applications” (MARS, INCORPORATED, priority 2010, dated 2018).
